Measured values: article PMC10681040 (Bioorganic chemistry, 2023)

These compounds were tested against human nCDase (extracellular region, residues 99–780) (Homo sapiens, UniProt Q9NR71) (assay: RBM biochemical nCDase enzymatic activity assay). Settings: qualitative; data not shown for valproate, anacardamate, MG149.
human nCDase (extracellular region, residues 99–780), sequence (Q9NR71 99-780): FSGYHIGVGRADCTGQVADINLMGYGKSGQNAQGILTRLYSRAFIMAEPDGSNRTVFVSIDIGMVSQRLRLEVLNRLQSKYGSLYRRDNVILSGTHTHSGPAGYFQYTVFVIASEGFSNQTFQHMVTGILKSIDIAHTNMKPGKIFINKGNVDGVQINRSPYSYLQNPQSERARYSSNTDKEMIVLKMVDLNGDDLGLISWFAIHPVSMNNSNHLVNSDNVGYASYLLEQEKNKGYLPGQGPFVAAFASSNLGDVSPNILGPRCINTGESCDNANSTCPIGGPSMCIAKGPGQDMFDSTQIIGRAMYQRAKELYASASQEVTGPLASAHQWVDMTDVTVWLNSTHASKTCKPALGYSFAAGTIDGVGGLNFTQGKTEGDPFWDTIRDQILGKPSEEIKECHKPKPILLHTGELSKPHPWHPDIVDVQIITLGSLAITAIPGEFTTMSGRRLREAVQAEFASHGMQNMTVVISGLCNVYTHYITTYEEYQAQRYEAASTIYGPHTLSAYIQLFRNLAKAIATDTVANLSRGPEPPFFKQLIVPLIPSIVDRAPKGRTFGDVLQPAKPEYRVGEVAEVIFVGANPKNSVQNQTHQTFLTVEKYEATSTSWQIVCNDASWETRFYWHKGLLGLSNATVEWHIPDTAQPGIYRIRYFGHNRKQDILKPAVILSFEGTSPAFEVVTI
In the case of `CCCCCCCc1ccc(CCc2cccc(O)c2C(=O)O)cc1` [MG149], the “nCDase inhibitory activity (in words)” value is reported as “exhibited nCDase inhibitory activity”.
In the case of `CCCC(CCC)C(=O)O` [valproate], the “nCDase inhibitory activity (in words)” value is reported as “exhibited nCDase inhibitory activity”.
anacardamate was tested, and the “nCDase inhibitory activity (in words)” value was “exhibited nCDase inhibitory activity”.
For `CC(/C=C/C(=O)NO)=C\[C@@H](C)C(=O)c1ccc(N(C)C)cc1` [Trichostatin A], the “nCDase inhibitory activity (in words)” value was “nCDase inhibitory activity”.
